# Measured values from ChEMBL document CHEMBL1649363, “Nitropyrrolins A-E, cytotoxic farnesyl-α-nitropyrroles from a marine-derived bacterium within the actinomycete family Streptomycetaceae” (J Nat Prod, 2010).
# Columns and labels:
# Staphylococcus aureus = assay: Antibacterial activity against methicillin-resistant Staphylococcus aureus; type: functional
# HCT-116 = assay: Cytotoxicity against human HCT116 cells; type: functional, cell-based
# [1] = Homo sapiens, HCT-116, read-out: IC50
SMILES,MIC (Staphylococcus aureus) [µg/mL],IC50 (HCT-116; [1]) [µM],IC50 (HCT-116; hct-116)
CC(C)=CCC/C(C)=C\CC/C(C)=C\Cc1cc[nH]c1,2.8,13.7,
CC(C)=CCC/C(C)=C\CC/C(C)=C\Cc1c[nH]c([N+](=O)[O-])c1,> 20,9.2,
O=[N+]([O-])c1ccc[nH]1,> 20,,Not Active
O=[N+]([O-])c1cc[nH]c1,> 20,,Not Active
CC(C)=CCC/C(C)=C\CC/C(C)=C\Cc1ccc[nH]1,> 20,24.4,
CC(C)=CCC/C(C)=C/CC[C@](C)(O)[C@H](O)Cc1c[nH]c([N+](=O)[O-])c1 [NITROPYRROLIN A],> 20,31.1,
CC(C)=CCC/C(C)=C/CC[C@@]1(C)O[C@@H]1Cc1c[nH]c([N+](=O)[O-])c1 [NITROPYRROLIN B],> 20,31,
CC(C)=CCC/C(C)=C/CC[C@@](C)(Cl)[C@H](O)Cc1c[nH]c([N+](=O)[O-])c1 [NITROPYRROLIN C],> 20,,Not Active
CC(C)=CCC/C(C)=C/C/C=C(\C)[C@H](O)Cc1c[nH]c([N+](=O)[O-])c1 [NITROPYRROLIN D],> 20,5.7,
C/C(=C\CC[C@@](C)(Cl)[C@H](O)Cc1c[nH]c([N+](=O)[O-])c1)CC[C@@H](O)C(C)(C)O [NITROPYRROLIN E],> 20,,Not Active
